{"source": "patent US20250186584A1", "about": "“METHODS OF TREATING BILIARY TRACT CANCER USING ANTI-PD-L1 ANTIBODY IN COMBINATION WITH CHEMOTHERAPY” (ASTRAZENECA AB, priority 2022, published 2025)", "key": {"[1]": {"system": "unresectable, locally advanced, or metastatic biliary tract cancer", "assay": "TOPAZ-1 phase 3 study: efficacy of durvalumab or placebo plus gemcitabine and cisplatin (OS, PFS, tumor response per RECIST v1.1)", "type": "in vivo, human", "conditions": "for Difference in overall survival: versus placebo plus gemcitabine and cisplatin; for Objective response rate: investigator assessment, RECIST v1.1, patients with measurable disease at baseline", "experimental": "This is a randomized, double-blind, placebo controlled, multi-center, global, Phase III study which determined the efficacy and safety of first-line treatment with durvalumab in combination with gemcitabine/cisplatin versus placebo in combination with gemcitabine/cisplatin in patients with previously untreated, unresectable, locally advanced, or metastatic BTC.\nArm A: Durvalumab plus gemcitabine/cisplatin combination therapy. Durvalumab 1500 mg via intravenous (IV) infusion q3w, starting on Cycle 1 in combination with cisplatin 25 mg/m^2 and gemcitabine 1000 mg/m^2 (each administered on Days 1 and 8 q3w) up to 8 cycles, followed by durvalumab 1500 mg as monotherapy q4w until clinical progression or RECIST 1.1-defined radiological progressive disease (PD), unless there is unacceptable toxicity, withdrawal of consent, or another discontinuation criterion is met.\nArm B: Placebo plus gemcitabine/cisplatin therapy. Placebo via IV infusion q3w, starting on Cycle 1 in combination with cisplatin 25 mg/m^2 and gemcitabine 1000 mg/m^2 (each administered on Days 1 and 8 q3w) up to 8 cycles, followed by placebo monotherapy q4w until clinical progression or RECIST 1.1-defined radiological PD, unless there is unacceptable toxicity, withdrawal of consent, or another discontinuation criterion is met.\nAdults aged ≥18 years with histologically confirmed unresectable, locally advanced, or metastatic adenocarcinoma of the biliary tract, including intrahepatic or extrahepatic cholangiocarcinoma and gallbladder carcinoma, were eligible for inclusion. Eligible patients included those with previously untreated disease that was unresectable or metastatic at initial diagnosis and those who developed recurrent disease >6 months after surgery with curative intent and >6 months after the completion of adjuvant therapy. Other inclusion criteria included an Eastern Cooperative Oncology Group (ECOG) performance status of 0 or 1, ≥1 measurable lesion per Response Evaluation Criteria in Solid Tumors (RECIST) v1.1, and no prior exposure to immune-meditated therapy. Patients were excluded if they had ampullary carcinoma, active or prior documented autoimmune or inflammatory disorders, or known allergy or hypersensitivity to any study treatment.\nTOPAZ-1 was a phase 3, randomized, double-blind, placebo-controlled, global study. Patients were randomly assigned in a 1:1 ratio to receive durvalumab in combination with gemcitabine and cisplatin or placebo in combination with gemcitabine and cisplatin.\nBaseline tumor assessments were performed using images acquired≤28 days before randomization. During the study period, tumor assessments were performed every 6 weeks (±1 week) for the first 24 weeks after randomization, and then every 8 weeks (±1 week) thereafter, until radiological disease progression, followed by ≥1 additional follow-up scan. Survival assessments were performed every 2 months following treatment discontinuation. Patients on treatment or in survival follow-up were contacted following the data cutoff for the interim analysis to provide complete survival data. Newly acquired tumor biopsy samples or archival samples taken≤3 years prior to screening were obtained by an image-guided core needle or by excision from all screened patients. Tissue samples were retrospectively evaluated for programmed cell death ligand 1 (PD-L1) expression by the Ventana PD-L1 (SP263) immunohistochemistry assay in all randomized patients using the tumor area positivity (TAP) score method. “TAP” is the proportion of tumor and/or immune cells with PD-L1 staining at any intensity and can be used interchangeably with “TIP.” A TAP score of ≥1% was defined as PD-L1 staining of any intensity in tumor cell membranes and/or tumor-associated immune cells covering ≥1% of the tumor area. A TAP score of <1% was defined as PD-L1 staining of any intensity in tumor cell membranes and/or tumor-associated immune cells covering <1% of tumor area. […]"}, "PD-L1": {"target": "PD-L1 (Homo sapiens, UniProt Q9NZQ7)", "sequence (Q9NZQ7 19-290)": "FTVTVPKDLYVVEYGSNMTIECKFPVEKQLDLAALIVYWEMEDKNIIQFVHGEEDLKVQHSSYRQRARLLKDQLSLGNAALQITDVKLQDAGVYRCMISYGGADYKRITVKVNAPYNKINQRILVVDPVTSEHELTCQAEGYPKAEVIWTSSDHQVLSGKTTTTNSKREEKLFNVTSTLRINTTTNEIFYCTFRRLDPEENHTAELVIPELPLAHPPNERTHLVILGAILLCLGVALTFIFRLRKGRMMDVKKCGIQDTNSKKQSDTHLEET", "conditions": "in vitro; cited from earlier work"}, "xenograft model": {"system": "xenograft model", "conditions": "via a T-cell dependent mechanism; cited from earlier work"}, "[2]": {"conditions": "patients with objective response"}}, "note": "Where “and” joins values, the source holds several entries; their conditions need not be identical. Equal values may be shown once. Entries after “also recorded” stand apart in the source; their conditions may differ."}
{"substance": "Durvalumab plus Gemcitabine and Cisplatin: Durvalumab 1500 mg IV q3w with cisplatin 25 mg/m^2 and gemcitabine 1000 mg/m^2 up to 8 cycles, then durvalumab monotherapy q4w", "values": [{"measurement": "Difference in overall survival", "setting": "[1]; at 12 months", "value": 6, "unit": "%"}, {"measurement": "Difference in overall survival", "setting": "[1]; at 18 months", "value": 10, "unit": "%"}, {"measurement": "Difference in overall survival", "setting": "[1]; at 24 months", "value": 15, "unit": "%"}, {"measurement": "Median overall survival (95% CI)", "setting": "[1]; full analysis set", "value": 12.8, "unit": "months"}, {"measurement": "Objective response rate", "setting": "[1]; listed as durvalumab+GemCis", "value": 26.7, "unit": "%"}, {"measurement": "Median duration of response", "setting": "[1]; [2]", "value": 6.4, "unit": "mo"}, {"measurement": "Median time to response", "setting": "[1]; [2]", "value": 1.6, "unit": "mo"}, {"measurement": "Percentage of patients with continued response", "setting": "[1]; ≥3 months", "value": 88.9, "unit": "%"}, {"measurement": "Percentage of patients with continued response", "setting": "[1]; ≥6 months", "value": 59.3, "unit": "%"}, {"measurement": "Percentage of patients with continued response", "setting": "[1]; ≥9 months", "value": 32.6, "unit": "%"}, {"measurement": "Percentage of patients with continued response", "setting": "[1]; ≥12 months", "value": 26.1, "unit": "%"}, {"measurement": "Abdominal pain upper, Grade 3/4", "setting": "adverse events of any causality", "value": 0, "unit": "no."}, {"measurement": "Adrenal insufficiency, Grade 3 or 4", "setting": "immune-mediated adverse events", "value": 0, "unit": "no."}, {"measurement": "Hyperthyroid events, Grade 3 or 4", "setting": "immune-mediated adverse events", "value": 0, "unit": "no."}, {"measurement": "Hypophysitis, Grade 3 or 4", "setting": "immune-mediated adverse events", "value": 0, "unit": "no."}, {"measurement": "Hypothyroid events, Grade 3 or 4", "setting": "immune-mediated adverse events", "value": 0, "unit": "no."}, {"measurement": "Myositis, Any Grade", "setting": "immune-mediated adverse events", "value": 0, "unit": "no."}, {"measurement": "Myositis, Grade 3 or 4", "setting": "immune-mediated adverse events", "value": 0, "unit": "no."}, {"measurement": "Pancreatic events, Grade 3 or 4", "setting": "immune-mediated adverse events", "value": 0, "unit": "no."}, {"measurement": "Renal events, Any Grade", "setting": "immune-mediated adverse events", "value": 0, "unit": "no."}, {"measurement": "Renal events, Grade 3 or 4", "setting": "immune-mediated adverse events", "value": 0, "unit": "no."}, {"measurement": "Thyroiditis, Grade 3 or 4", "setting": "immune-mediated adverse events", "value": 0, "unit": "no."}]}
{"substance": "durvalumab: antibody that selectively binds PD-L1 and blocks the binding of PD-L1 to PD-1 and CD80 receptors", "values": [{"measurement": "Benefit of the addition of durvalumab to gemcitabine and cisplatin, subgroup analysis of overall survival", "setting": "[1]; FIG. 8", "value": "observed across all subgroups"}, {"measurement": "Benefit of the addition of durvalumab to gemcitabine and cisplatin, overall survival by PD-L1 expression", "setting": "[1]; TAP score, Ventana PD-L1 (SP263) assay", "value": "observed across PD-L1 expression; also recorded: observed regardless of PD-L1 expression"}, {"measurement": "Overall survival hazard ratio (95% CI)", "setting": "[1]; after 6 months, durvalumab versus placebo", "value": "0.74 (0.58-0.94)"}, {"measurement": "Estimated overall survival rate (95% CI)", "setting": "[1]; at 12 months", "value": 54.1, "unit": "%"}, {"measurement": "Estimated overall survival rate (95% CI)", "setting": "[1]; at 18 months", "value": 35.1, "unit": "%"}, {"measurement": "Estimated overall survival rate (95% CI)", "setting": "[1]; at 24 months", "value": 24.9, "unit": "%"}, {"measurement": "Overall survival hazard ratio", "setting": "[1]; durvalumab versus placebo, each plus gemcitabine and cisplatin, 95% CI 0.66-0.97, P=0.021", "value": 0.80}, {"measurement": "Hazard ratio for progression-free survival", "setting": "[1]; durvalumab versus placebo, 95% CI 0.63-0.89, P=0.001", "value": 0.75}, {"measurement": "Objective response rate odds ratio", "setting": "[1]; durvalumab versus placebo, 95% CI 1.11-2.31", "value": 1.60}, {"measurement": "Median (95% CI) progression-free survival", "setting": "[1]; full analysis set", "value": "7.2 months and 7.2 (6.7-7.4) months"}, {"measurement": "Median overall survival (95% CI)", "setting": "[1]; full analysis set", "value": "12.8 (11.1-14.0) months"}, {"measurement": "Objective response rate", "setting": "[1]", "value": 26.7, "unit": "%"}, {"measurement": "Hazard ratio for overall survival", "setting": "[1]; patients with PD-L1 TAP score of >1%, durvalumab versus placebo, 95% CI 0.61-1.00", "value": 0.79}, {"measurement": "Hazard ratio for overall survival", "setting": "[1]; patients with TAP score <1%, durvalumab versus placebo, 95% CI 0.60-1.23", "value": 0.86}, {"measurement": "Overall survival hazard ratio (95% CI)", "setting": "[1]; up to 6 months, durvalumab versus placebo", "value": "0.91 (0.66-1.26)"}, {"measurement": "Percentage of patients with continued response", "setting": "[1]; ≥9 months", "value": 32.6, "unit": "%"}, {"measurement": "Percentage of patients with continued response", "setting": "[1]; ≥12 months", "value": 26.1, "unit": "%"}, {"measurement": "Additional toxicity to that observed with chemotherapy", "setting": "in vivo", "value": "did not add additional toxicity"}, {"measurement": "Anemia, Any Grade", "setting": "in vivo", "value": 48.2, "unit": "%"}, {"measurement": "Any immune-mediated adverse event, Any Grade", "setting": "in vivo", "value": 12.7, "unit": "%"}, {"measurement": "Any immune-mediated adverse event, Grade 3 or 4", "setting": "in vivo", "value": 2.4, "unit": "%"}, {"measurement": "Constipation, Any Grade", "setting": "in vivo", "value": 32.0, "unit": "%"}, {"measurement": "Events in the other rare/miscellaneous category of immune-mediated adverse events", "setting": "in vivo", "value": "immune-mediated arthritis"}, {"measurement": "Nausea, Any Grade", "setting": "in vivo", "value": 40.2, "unit": "%"}, {"measurement": "Neutropenia, Any Grade", "setting": "in vivo", "value": 31.7, "unit": "%"}, {"measurement": "Treatment-related adverse event leading to discontinuation of any study treatment", "setting": "in vivo", "value": 8.9, "unit": "%"}, {"measurement": "PD-L1-mediated suppression of human T-cell activation", "setting": "PD-L1", "value": "can relieve PD-L1-mediated suppression of human T-cell activation"}, {"measurement": "Tumor growth in a xenograft model", "setting": "xenograft model", "value": "inhibits tumor growth"}]}
